The nature of series [1]: Solubility assay in water, 0.1% hydrochloric acid and methanol. It is filed as physicochemical. On the procedure: The solubility was characterized by:
The term “very soluble” refers to that 1 g (mL) of solute can be dissolved in less than 1 mL of solvent;
The term “freely soluble” refers to that 1 g (mL) of solute can be dissolved in from 1 mL to 10 mL, not including 10 mL of solvent;
The term “soluble” refers to that 1 g (mL) of solute can be dissolved in from 10 mL to 30 mL, not including 30 mL of solvent;
The term “sparingly soluble” refers to that 1g (mL) of solute can be dissolved in from 30 mL to 100 mL, not including 100 mL of solvent;
The term “slightly soluble” refers to that 1g (mL) of solute can be dissolved in from 100 mL to 1000 mL, not including 1000 mL of solvent;
The term “very slightly soluble” refers to that 1g (mL) of solute can be dissolved in from 1000 mL to 10000 mL, not including 10000 mL of solvent;
The term “practically insoluble or insoluble” refers to that 1g (mL) of solute cannot be dissolved completely in 10000 mL of solvent.

A short description of series [2]: Pharmacokinetics assay in rats. Type of series: in vivo, SD rats. Particulars: 50 mg/kg, SD rats, intragastric, 50 mg/Kg (as free acid); for Vd/F / AUC / CL/F / half-life / MRT / Cmax / Tmax: both sexes, SD, rat, plasma, po; for Vd/F: read-out: Apparent Distribution Volume Vz/F; for AUC: read-out: Area Under Curve AUC; for CL/F: read-out: Clearance CL/F (converted); for half-life: read-out: Half-Life t½ (converted); for MRT: read-out: Mean Residence Time MRT; for Cmax: read-out: Plasma Conc. Cmax; for Tmax: read-out: Time to peak Tmax. The method, boiled down:
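SD rats, half male and half female, dosed intragastrically with compound suspended at 5 mg/mL (as free acid) in 1% sodium carboxymethyl cellulose; fed 2 h post-dose. Plasma concentrations over time were measured by HPLC-UV. Parameters came from a compartmental fit, with Cmax and tmax as observed values.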

For a further series, the target named is T1, human TPOR (Homo sapiens, UniProt P40238).
T1 construct: host or cells: BaF3 (murine pro-B cells), stably transfected, G418-selected
T1 sequence (P40238 26-635): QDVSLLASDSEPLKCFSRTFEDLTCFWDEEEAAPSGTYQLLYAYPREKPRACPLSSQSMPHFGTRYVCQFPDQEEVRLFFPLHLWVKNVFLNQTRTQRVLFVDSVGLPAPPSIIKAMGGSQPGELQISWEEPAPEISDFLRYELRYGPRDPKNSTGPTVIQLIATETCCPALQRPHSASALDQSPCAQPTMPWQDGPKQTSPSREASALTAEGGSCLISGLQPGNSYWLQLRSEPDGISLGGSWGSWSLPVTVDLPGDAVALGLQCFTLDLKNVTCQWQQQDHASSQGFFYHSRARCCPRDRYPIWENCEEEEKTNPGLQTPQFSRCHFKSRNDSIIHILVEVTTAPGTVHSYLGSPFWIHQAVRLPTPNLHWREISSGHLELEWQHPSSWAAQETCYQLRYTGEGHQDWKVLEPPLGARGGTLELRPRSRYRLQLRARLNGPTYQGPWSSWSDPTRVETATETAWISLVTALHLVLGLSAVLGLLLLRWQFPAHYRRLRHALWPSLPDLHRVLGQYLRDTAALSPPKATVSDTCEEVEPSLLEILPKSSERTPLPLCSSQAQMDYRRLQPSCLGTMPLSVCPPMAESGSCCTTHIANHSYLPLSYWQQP
Description: Proliferation effect on BAF3-TPOR cell (CCK-8). Type of series: cell-based. The settings on record: rate relative to rhTPO positive control. On the procedure:
(1) Plasmid constructs: based on the TPO receptor (TPOR) sequence information from Entrez (Gene ID: 4325, Refseq: NM_005373), dual-site mutation was performed on EX-B0010-M02 plasmid by using QuikChange® Multi Site Directed Mutagenesis Kit (Stratagene). The sequence of primers containing multi-sites mutation was designed as follows: […]
The E. coli DH5α competent cells were transformed with mutated plasmid, and positive colonies were picked up through ampicillin selection. The mutation result was confirmed by sequence analysis.
(2) BAF3-TPOR stable transfected cell line: the following method was used to construct the BaF3 cell which stably over-expressed functional human TPOR. The successfully mutated EX-B0010-M02 plasmid ([…]) which expressed human TPOR and screening gene neomycin was transfected into wild-type BaF3 cells (1×10^7) by electroporation at 250V for 18 ms using an electric pulse generator (Electro Square Porator ECM830, BTX Division of Genetronic, Inc. US). The stable transfected cells BAF3-TPOR were selected with G418 (Gibco, US), then incubated in RPMI1640 medium plus 10% FBS (Gibco, US), […] G418, 5 ng/mL, rmIL-3 (Chemicon, US).
(1) Washing cells by centrifugation: a suitable amount of cell suspension was centrifuged at 1000 rpm for 5 minutes, and the supernatant was discarded. 10 mL of cell culture media without IL-3 was added. Then the resulting cell suspension was centrifuged at 1000 rpm for 5 minutes, and the supernatant was discarded.
(2) 1 mL of cell culture media without IL-3 was added to beat upon them to equality, and the number of a suitable amount of cell suspension was counted after dilution.
(3) According to the result of the cell counting, a cell suspension in a concentration of 100,000 cell/mL was prepared.
(4) 100 μL of cell suspension was transferred to each well of 96-well culture plate, and there were 3 parallel wells, that is, there were a blank control group (B), a negative control group (N), a positive control group of TPO (P) and a test compound group (S).
(5) The test compound was dissolved in DMSO to prepare a 10 mM stock solution, and then the solution was diluted with RPMI 1640 medium into a series of test samples at different concentration: 30 μM, 10 μM, 3 μM, 1 μM, 0.3 μM, 0.1 μM, 0.03 μM, 0.01 μM, 0.003 μM, 0.001 μM.
(6) 10 μL of test compound solution was transferred to each well respectively; 1 μL of rhTPO (10 ng/mL) was added to positive control well.
(7) The plates were incubated in an incubator at 5% CO2 and 37° C. for 24 hours.
(8) After incubation, 10 μL of CCK-8 solution was added to each well and the plates were incubated in the incubator for another 24 hours.
(9) OD value was detected at 450 nm by VICTORS (Perkin Elmer 1420-120) plate reader.
(1) The proliferation rate was calculated as follows: Rate=[(S−B)/(P−B)]*100%
S: OD value of wells which contain test compound.
B: OD value of blank control wells
P: OD value of positive control wells
(2) The EC50 value was calculated by Origin 7.0 software.

Series [3] in a line: Hygroscopicity assay, standing 48 hours at 25° C., humidity 79%. Type of series: physicochemical. Particulars: 48 hours, 25° C., humidity 79%. On the procedure:
The hygroscopicity test of the compounds of the present disclosure after standing for 48 hours
1. The arid glass weighing bottle with a tap (external diameter is 50 mm, the height is 15 mm) was placed at 25° C.±1° C. suitably in a thermostatic drier (saturated ammonium sulfate solution was laid in the lower part, humidity was 79%) the day before the assay, precise weight was measured as (m1);
2. The above weighing bottle was covered with the compounds of the invention (about 1 g), and the thickness of the compounds were generally 1 mm, precise weight was measured as (m2);
3. The mouth of the weighing bottle was kept open and placed with the tap in the above conditions with constant temperature and humidity for 48 hours;
4. Put the tap back on the bottle, precise weight was measured as (m3)
The degree of hygroscopicity was defined as follows: […]
Deliquesce: turning into liquid by absorbing enough moisture.
High hygroscopicity: the percentage of hygroscopicity weight gain is not less than 15%.
Hygroscopicity: the percentage of hygroscopicity weight gain is less than 15%, but not less than 2%.
Sparing hygroscopicity: the percentage of hygroscopicity weight gain is less than 2%, but not less than 0.2%.
No hygroscopicity or almost no hygroscopicity: the percentage of hygroscopicity weight gain is less than 0.2%.

Where [4] appears, read: 0.1% hydrochloric acid, simulated gastric fluid, 0.1% hydrochloric acid, read-out: solubility.
[5] abbreviates: methanol, organic solvent or mixture, methanol, read-out: solubility.

In brackets after ≈: the same amount, converted by molar mass. Read-outs that look alike come from different tables or passages of the source. Where only a bound is given, the exact number is not on record here.

A word on the solubility: it is the concentration that dissolves in the medium under given conditions. The term AUC denotes concentration integrated over time. What is called half-life is the time needed for the level to fall by half in the phase considered. By MRT is commonly meant a mean duration of stay, worked out from the concentration-time curve. What is called Cmax is the maximum level reached in the sampled fluid or tissue. Broadly, the Tmax is the time at which the peak concentration occurs. One may read the EC50 as the midpoint of the concentration-response curve. As to `CC1=NN(c2ccc3c(c2)C(C)(C)CC3)C(=O)/C1=N\Nc1cccc(-c2ccc(C(=O)O)o2)c1O.NCCO.NCCO` [Example 4, (Z)-5-(3-{N′-[1-(3,3-dimethyl-indan-5-yl)-3-methyl-5-oxo-1,5-dihydro-pyrazol-4-ylidene]-hydrazino}-2-hydroxy-phenyl)-furan-2-carboxylic acid bis-(ethanolamine)], in series [1] (setting [4]), the solubility is 24 µg/mL. Further, in series [1] (setting [5]), the solubility was 19000 µg/mL. The solubility in series [1] (water, read-out: solubility) turned out to be 2900 µg/mL. Besides, in series [2], the Vd/F worked out at 58.1 ± 47.7 L/kg, the AUC was 19 ± 12.6 µg·h/mL, the CL/F is 40.3 mL/min/kg and the half-life is 27 ± 31.5 h. For the same compound, in series [2], the MRT stood at 38.3 ± 36.5 h, the Cmax turned out to be 2320 ± 1800 ng/mL and the Tmax amounted to 2.25 ± 2.47 h. The same compound returned an EC50 at human TPOR of 25 nM.

`CC1=NN(c2ccc3c(c2)C(C)(C)CC3)C(=O)/C1=N\Nc1cccc(-c2ccc(C(=O)O)o2)c1O` [Example 6, (Z)-5-(3-{N′-[1-(3,3-dimethyl-indan-5-yl)-3-methyl-5-oxo-1,5-dihydro-pyrazol-4-ylidene]-hydrazino}-2-hydroxy-phenyl)-furan-2-carboxylic acid bis-(piperazine)] had a solubility in series [1] (0.1% hydrochloric acid) of under 1 µg/mL. The compound also yielded a solubility in series [1] (methanol) of 3009 µg/mL (≈ 6370 µM). Further, the solubility in series [1] (water) is 1 µg/mL (≈ 2.12 µM). In series [2], the “Area Under Curve AUC” value came to 175 ± 41 µg·h/mL, the “Clearance CL/F” value amounted to 5 ± 1.4 mL/min/kg, the “Half-Life t½” value was 45.0 ± 70.3 h and the “Mean Residence Time MRT” value was determined as 60.4 ± 90.2 h. In series [2], the “Plasma Conc. Cmax” value came out at 13000 ± 6500 ng/mL and the “Time to peak Tmax” value is 2.5 ± 1.0 h. At human TPOR, the EC50 was found to be 36 nM.

In the case of `CC1=NN(c2ccc3c(c2)CCC3)C(=O)/C1=N\Nc1cccc(-c2cccc(C(=O)O)c2)c1O.NCCO.NCCO` [Example 1, (Z)-2′-hydroxy-3′-[N′-(1-indan-5-yl-3-methyl-5-oxo-1,5-dihydro-pyrazol-4-ylidene)-hydrazino]-biphenyl-3-carboxylic acid bis-(ethanolamine)], the solubility in series [1] (setting [4]) was under 1 µg/mL. The solubility in series [1] (setting [5]) was 1470 µg/mL. Further, the solubility in series [1] (water, read-out: solubility) amounted to 3 µg/mL. In series [2], the Vd/F is 0.45 ± 0.32 L/kg, the AUC was found to be 501 ± 178 µg·h/mL, the CL/F was 1.63 mL/min/kg and the half-life was 5.39 ± 0.94 h. Besides, in series [2], the MRT is 4.96 ± 1.16 h, the Cmax was 90100 ± 35300 ng/mL and the time to peak (Tmax) worked out at 3.25 ± 1.5 h. Further, on human TPOR, the EC50 turned out to be 150 nM.

As to `CC1=NN(c2ccc3c(c2)CCCC3)C(=O)/C1=N\Nc1cccc(-c2ccc(C(=O)O)o2)c1O` [Example 23, (Z)-5-(2-hydroxy-3-{N′-[3-methyl-5-oxo-1-(5,6,7,8-tetrahydro-naphthalen-2-yl)-1,5-dihydro-pyrazol-4-ylidene]-hydrazino}-phenyl)-furan-2-carboxylic acid choline], in series [2], the “Area Under Curve AUC” value worked out at 123 ± 89.5 µg·h/mL, the “Clearance CL/F” value was 8.78 ± 4 mL/min/kg, the “Half-Life t½” value is listed as 7.61 ± 1.34 h and the “Plasma Conc. Cmax” value turned out to be 17200 ± 12300 ng/mL. Also, the “Time to peak Tmax” value in series [2] amounted to 3.25 ± 3.18 h. In series [3], the “Percentage of weight gain” value came to 8.48% and the hygroscopicity result is “Hygroscopicity (the percentage of hygroscopicity weight gain is less than 15%, but not less than 2%)”. Further, on human TPOR, the EC50 was determined as 43 nM.

Source of the values: patent US9120762B2, “Salts of bicyclo-substituted pyrazolon azo derivatives, preparation method and use thereof” (Jiangsu Hengrui Medicine Co., Ltd., priority 2009, dated 2015).
